Laboratory results published in article PMC12238723, “Phase I Clinical Trial of CVL218, a Novel PARP1/2 Inhibitor, in Patients with Advanced Solid Tumors” (MedComm, 2025).

Key:
[1] = test system: advanced solid tumors; assay: Antitumor activity, tumor response per RECIST 1.1 and PFS; assay type: in vivo, patients
Excerpt: This study was a single‐arm, dose‐escalation phase I trial conducted in Sun Yat‐sen University Cancer Center in China. This study assessed CVL218 in patients with histologically or cytologically confirmed advanced solid tumors who were in PD after standard therapeutic regimens or lacked standard treatment options. Inclusion criteria included: age 18–75 years; with at least one measurable and evaluable target lesion per Response Evaluation Criteria in Solid Tumors 1.1 (RECIST 1.1); ECOG performance status of 0 or 1; adequate hematological, renal, cardiac, and hepatic functions and a life expectancy ≥12 weeks. Key exclusion criteria included prior usage of PARP inhibitors; allergic to the research drug or its components; with active, unstable systemic diseases or active, uncontrolled infection; a history of other malignancies within 5 years, and pregnant or lactating women.
Single‐dose and multiple‐dose PK parameters included C max, T max, elimination half‐life (T 1/2), AUC0– t , AUC0–inf, oral clearance (CL/F), and apparent volume of distribution (V z/F) for CVL218. Tumor response was assessed per RECIST 1.1. ORR was defined as proportion of patients with a CR or PR on at least one visit, while DCR was defined as proportion of patients with a CR or PR or SD. PFS was defined as the time from the first dose of either drug to investigator assessed radiologic PD or to death of any cause. PFS would be censored at the time of last tumor assessment.
Subjects who received at least one dose of CVL218 with postadministration safety records were included in safety analysis set. Subjects who received at least one dose of CVL218 with at least one evaluable PK parameter were included in PK analysis set. Per‐protocol set were used for efficacy analysis. Descriptive statistics of safety were presented per CTCAE v5.0. The PK parameters T max and T 1/2 were shown as the median (min, max) and mean ± SD, respectively. A two‐sided p < 0.05 was considered to indicate statistical significance. Statistical analysis was performed by using GraphPad prism 8.0.2 and R‐4.3.3.

[2] = set-up: method as in PMID 36283983; details: cited from earlier work

CNCc1ccc(-c2cc3cc(F)cc(C(N)=O)c3o2)cc1.Cl [CVL218]
BOR, CR ([1]; 50 mg BID (N = 1)): 0 n (%)
BOR, PD ([1]; 50 mg BID (N = 1)): 1 (100) n (%)
BOR, PR ([1]; 50 mg BID (N = 1)): 0 n (%)
DCR ([1]; 50 mg BID (N = 1)): 0 (0, 97.50) n (%) (95%CI)
ORR ([1]; 50 mg BID (N = 1)): 0 (0, 97.5) n (%) (95%CI)
mPFS ([1]; 50 mg BID (N = 1)): 1.05 months
BOR, CR ([1]; 100 mg BID (N = 1)): 0 n (%)
BOR, PD ([1]; 100 mg BID (N = 1)): 1 (100) n (%)
BOR, PR ([1]; 100 mg BID (N = 1)): 0 n (%)
DCR ([1]; 100 mg BID (N = 1)): 0 (0, 97.50) n (%) (95%CI)
ORR ([1]; 100 mg BID (N = 1)): 0 (0, 97.5) n (%) (95%CI)
mPFS ([1]; 100 mg BID (N = 1)): 1.05 months
BOR, CR ([1]; 200 mg BID (N = 1)): 0 n (%)
BOR, PD ([1]; 200 mg BID (N = 1)): 0 n (%)
BOR, PR ([1]; 200 mg BID (N = 1)): 0 n (%)
DCR ([1]; 200 mg BID (N = 1)): 1 (100) (2.5, 100.0) n (%) (95%CI)
ORR ([1]; 200 mg BID (N = 1)): 0 (0, 97.5) n (%) (95%CI)
mPFS ([1]; 200 mg BID (N = 1)): 1.97 months
BOR, CR ([1]; 350 mg BID (N = 4)): 0 n (%)
BOR, PD ([1]; 350 mg BID (N = 4)): 1 (25.0) n (%)
BOR, PR ([1]; 350 mg BID (N = 4)): 0 n (%)
DCR ([1]; 350 mg BID (N = 4)): 3 (75.0) (19.4, 99.4) n (%) (95%CI)
ORR ([1]; 350 mg BID (N = 4)): 0 (0, 60.2) n (%) (95%CI)
mPFS ([1]; 350 mg BID (N = 4)): 2.34 months
BOR, CR ([1]; 500 mg BID (N = 4)): 0 n (%)
BOR, PD ([1]; 500 mg BID (N = 4)): 1 (25.0) n (%)
BOR, PR ([1]; 500 mg BID (N = 4)): 0 n (%)
DCR ([1]; 500 mg BID (N = 4)): 3 (75.0) (19.4, 99.4) n (%) (95%CI)
ORR ([1]; 500 mg BID (N = 4)): 0 (0, 60.2) n (%) (95%CI)
mPFS ([1]; 500 mg BID (N = 4)): 3.27 months
BOR, CR ([1]; 600 mg BID (N = 3)): 0 n (%)
BOR, PD ([1]; 600 mg BID (N = 3)): 3 (100) n (%)
BOR, PR ([1]; 600 mg BID (N = 3)): 0 n (%)
DCR ([1]; 600 mg BID (N = 3)): 0 (0, 70.8) n (%) (95%CI)
ORR ([1]; 600 mg BID (N = 3)): 0 (0, 70.8) n (%) (95%CI)
mPFS ([1]; 600 mg BID (N = 3)): 1.02 months
BOR, CR ([1]; 700 mg BID (N = 6)): 0 n (%)
BOR, PD ([1]; 700 mg BID (N = 6)): 0 n (%)
BOR, PR ([1]; 700 mg BID (N = 6)): 0 n (%)
DCR ([1]; 700 mg BID (N = 6)): 6 (100) (54.1, 100.0) n (%) (95%CI)
ORR ([1]; 700 mg BID (N = 6)): 0 (0, 45.9) n (%) (95%CI)
mPFS ([1]; 700 mg BID (N = 6)): 2.27 months
BOR, CR ([1]; 850 mg BID (N = 4)): 0 n (%)
BOR, PD ([1]; 850 mg BID (N = 4)): 0 n (%)
BOR, PR ([1]; 850 mg BID (N = 4)): 0 n (%)
DCR ([1]; 850 mg BID (N = 4)): 4 (100) (39.8, 100.0) n (%) (95%CI)
ORR ([1]; 850 mg BID (N = 4)): 0 (0, 60.2) n (%) (95%CI)
mPFS ([1]; 850 mg BID (N = 4)): 2.35 months
mPFS ([1]; 7 breast cancer patients): 1.71 months
mPFS ([1]; 7 patients whose best overall response was PD): 1.05 months
mPFS ([1]; 10 patients on high-level doses (≥700 mg BID)): 2.35 months
mPFS ([1]; 14 patients on low-level doses (<700 mg BID)): 1.80 months
mPFS ([1]; 17 patients with SD): 2.79 months
complete response (CR) or partial response (PR) ([1]; 24 subjects of efficacy analysis set): none of them achieved complete response (CR) or partial response (PR)
BOR, CR ([1]; Breast cancer (N=7)): 0 n (%)
BOR, PD ([1]; Breast cancer (N=7)): 2 (28.6) n (%)
BOR, PR ([1]; Breast cancer (N=7)): 0 n (%)
DCR ([1]; Breast cancer (N=7)): 71.4 (29.0, 96.3) n (%) (95%CI)
ORR ([1]; Breast cancer (N=7)): 0 (0, 41.0) n (%) (95%CI)
mPFS ([1]; Breast cancer (N=7)): 1.71 months
BOR, CR ([1]; Lung cancer (N=10)): 0 n (%)
BOR, PD ([1]; Lung cancer (N=10)): 4 (40.0) n (%)
BOR, PR ([1]; Lung cancer (N=10)): 0 n (%)
ORR ([1]; Lung cancer (N=10)): 0 (0, 30.9) n (%) (95%CI)
mPFS ([1]; Lung cancer (N=10)): 2.12 months
BOR, CR ([1]; Other types (N=7)): 0 n (%)
BOR, PD ([1]; Other types (N=7)): 1 (14.3) n (%)
BOR, PR ([1]; Other types (N=7)): 0 n (%)
DCR ([1]; Other types (N=7)): 85.7 (42.1, 99.6) n (%) (95%CI)
ORR ([1]; Other types (N=7)): 0 (0, 41) n (%) (95%CI)
mPFS ([1]; Other types (N=7)): 1.91 months
BOR, CR ([1]; Overall (N = 24)): 0 n (%)
BOR, PD ([1]; Overall (N = 24)): 7 (29.2) n (%)
BOR, PR ([1]; Overall (N = 24)): 0 n (%)
DCR ([1]; Overall (N = 24)): 17 (70.8) (48.9, 87.4) n (%) (95%CI)
ORR ([1]; Overall (N = 24)): 0 (0, 14.3) n (%) (95%CI)
mPFS ([1]; Overall (N = 24)): 1.89 months
median PFS (mPFS) ([1]; all subjects, PFS events in 24 patients): 1.89 months
DCR ([1]; breast cancer): 71.4%
disease control rate (DCR) ([1]; high-level doses (≥700 mg BID, n = 10)): 100%
disease control rate (DCR) ([1]; low-level dose group (<700 mg BID, n = 14)): 50%
DCR ([1]; lung cancer): 60%
DCR ([1]; other cancers): 85.7%
disease control rate (DCR) ([1]; overall, 24 patients): 70.8%
mPFS ([1]; patients with lung cancer): 2.12 months
disease control rate (DCR) ([1]; recommended dose (700 mg BID, n = 6)): 100%
mPFS ([1]; seven patients with other cancer types): 1.91 months
blood–brain barrier crossing [2]: readily crosses the blood–brain barrier
